Data taken from ChEMBL document CHEMBL1157400, “Cytotoxic staurosporines from the marine ascidian Cystodytes solitus” (2008).

Experiments:
Format in all cases: functional
HT-29 = experiment: Cytotoxicity against human HT29 cells after 72 hrs by sulforhodamine B method; conditions: HT-29, 72 h
A549 = experiment: Cytotoxicity against human A549 cells after 72 hrs by sulforhodamine B method; conditions: A549, 72 h
MDA-MB-231 = experiment: Cytotoxicity against human MDA-MB-231 cells after 72 hrs by sulforhodamine B method; conditions: MDA-MB-231, 72 h

Row | SMILES | GI50 (HT-29) [nM] | GI50 (A549) [nM] | GI50 (MDA-MB-231) [nM]
1 | CN[C@@H]1C[C@H]2O[C@@](C)([C@@H]1OC)n1c3ccc(O)c(O)c3c3c4c(c5c6cc(O)ccc6n2c5c31)C(=O)NC4=O | 68.1 | 26.6 | 28.4
2 | CO[C@@H]1[C@H](N)C[C@H]2O[C@]1(C)n1c3ccc(O)c(O)c3c3c4c(c5c6ccccc6n2c5c31)C(=O)NC4=O | 90.3 | 17.5 | 32.1
3 | CN[C@@H]1C[C@H]2O[C@@](C)([C@@H]1OC)n1c3ccccc3c3c4c(c5c6ccccc6n2c5c31)C(=O)NC4 [STAUROSPORINE] | 10.9 | 2.4 | 7.1
